Data: ChEMBL document CHEMBL1152306, “Characterization of novel furan compounds on the basis of their radical scavenging activity and cytoprotective effects against glutamate- and lipopolysaccharide-induced insults” (Bioorg Med Chem, 2008)
The source made the active and inactive calls. The calls are words filed in the database; no cut-off is given here.

Legend:
[1] = tested on: Cerebral cortex neuron; assay: Neuroprotective activity against glutamate-induced neuronal cell death in Sprague-Dawley rat primary cortical neuron at 0.25 uM pretreated for 24 hrs prior to glutamate challenge measured after 24 hrs by MTT assay; assay type: functional, cell-based
[2] = tested on: Cerebral cortex neuron; assay: Neuroprotective activity against glutamate-induced neuronal cell death in Sprague-Dawley rat primary cortical neuron at 0.25 uM administered simultaneously with glutamate after 24 hrs by MTT assay; assay type: functional, cell-based
[3] = biological target: Prostaglandin G/H synthase 1 (Homo sapiens, UniProt P23219); assay: Inhibition of COX1
[4] = biological target: T1, Prostaglandin G/H synthase 2 (Homo sapiens, UniProt P35354); assay: Inhibition of COX2
T1 sequence (P35354 whole entry): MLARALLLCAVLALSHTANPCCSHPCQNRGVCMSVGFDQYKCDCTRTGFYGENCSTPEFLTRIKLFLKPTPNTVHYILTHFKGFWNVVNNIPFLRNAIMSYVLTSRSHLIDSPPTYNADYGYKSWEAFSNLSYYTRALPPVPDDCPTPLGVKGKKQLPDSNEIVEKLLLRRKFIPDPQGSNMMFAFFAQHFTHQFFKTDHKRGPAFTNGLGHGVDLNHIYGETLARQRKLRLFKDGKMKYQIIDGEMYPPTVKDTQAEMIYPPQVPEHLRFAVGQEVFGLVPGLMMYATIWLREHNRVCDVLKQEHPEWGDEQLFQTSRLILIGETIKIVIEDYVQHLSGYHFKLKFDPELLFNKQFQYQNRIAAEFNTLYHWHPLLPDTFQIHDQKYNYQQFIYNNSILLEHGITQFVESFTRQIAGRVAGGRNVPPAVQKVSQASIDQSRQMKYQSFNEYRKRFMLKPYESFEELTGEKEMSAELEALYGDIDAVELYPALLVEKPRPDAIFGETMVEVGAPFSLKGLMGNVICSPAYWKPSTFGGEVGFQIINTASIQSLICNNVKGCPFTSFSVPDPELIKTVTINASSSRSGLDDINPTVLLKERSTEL

[5] = Radical scavenging activity assessed as relative reactivity against beta-carotene in benzene solution; assay type: physicochemical
[6] = Radical scavenging activity assessed as relative reactivity against beta-carotene in 2,2-azobis[2-(2-imidazolin-2-yl)-propane]dihydrochloride solution; assay type: physicochemical
[7] = tested on: THP-1; assay: Cytoprotective activity against LPS-induced cell death in human THP1 cells at 10 uM pretreated for 24 hrs prior to LPS challenge measured after 24 hrs by MTT assay; assay type: functional, cell-based
[8] = Radical scavenging activity assessed as rate constant; assay type: physicochemical
[9] = Radical scavenging activity assessed as relative reactivity against beta-carotene in MeO-AMVN solution; assay type: physicochemical
[10] = tested on: PC-12; assay: Cytoprotective activity against LPS-induced cell death in rat PC12 cells at 1 to 50 uM pretreated for 24 hrs prior to LPS challenge measured after 24 hrs by MTT assay; assay type: functional, cell-based
[11] = Radical scavenging activity assessed as suppression of MeO-AMVN-induced beta-carotene oxidation in benzene solution; assay type: physicochemical
[12] = tested on: PC-12; assay: Cytoprotective activity against 6-OHDA-induced cell death in rat PC12 cells at 50 uM pretreated for 24 hrs prior to 6-OHDA challenge measured after 24 hrs by MTT assay; assay type: functional, cell-based
[13] = biological target: T2, Polyunsaturated fatty acid 5-lipoxygenase (Homo sapiens, UniProt P09917); assay: Inhibition of 5LOX
T2 sequence (P09917 whole entry): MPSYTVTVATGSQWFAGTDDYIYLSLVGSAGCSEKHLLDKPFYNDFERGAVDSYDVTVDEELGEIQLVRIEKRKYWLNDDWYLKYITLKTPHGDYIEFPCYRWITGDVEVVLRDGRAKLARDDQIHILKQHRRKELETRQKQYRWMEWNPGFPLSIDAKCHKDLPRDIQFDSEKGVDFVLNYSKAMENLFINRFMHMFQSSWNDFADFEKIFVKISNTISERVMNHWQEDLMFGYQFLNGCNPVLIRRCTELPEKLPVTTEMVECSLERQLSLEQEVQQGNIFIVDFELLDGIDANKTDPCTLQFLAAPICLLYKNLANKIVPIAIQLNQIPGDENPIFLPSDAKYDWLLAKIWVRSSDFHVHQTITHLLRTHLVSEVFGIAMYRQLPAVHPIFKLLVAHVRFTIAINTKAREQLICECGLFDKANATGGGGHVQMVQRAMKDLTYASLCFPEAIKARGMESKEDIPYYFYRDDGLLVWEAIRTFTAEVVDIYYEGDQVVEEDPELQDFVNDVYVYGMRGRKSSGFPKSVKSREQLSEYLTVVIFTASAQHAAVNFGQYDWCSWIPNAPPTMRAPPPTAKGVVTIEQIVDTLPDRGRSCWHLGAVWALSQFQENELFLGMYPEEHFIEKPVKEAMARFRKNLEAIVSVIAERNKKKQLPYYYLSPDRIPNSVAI

[14] = tested on: PC-12; assay: Cytoprotective activity against 13(S)-HpODE-induced cell death in rat PC12 cells pretreated for 24 hrs prior to 13(S)-HpODE challenge measured after 24 hrs by MTT assay; assay type: functional, cell-based
[15] = tested on: PC-12; assay: Cytoprotective activity against 6-OHDA-induced cell death in rat PC12 cells at 25 uM pretreated for 24 hrs prior to 6-OHDA challenge measured after 24 hrs by MTT assay; assay type: functional, cell-based
[16] = tested on: Cerebral cortex neuron; assay: Neuroprotective activity against glutamate-induced neuronal cell death in Sprague-Dawley rat primary cortical neuron at 1 uM administered simultaneously with glutamate after 24 hrs by MTT assay; assay type: functional, cell-based
[17] = tested on: Cerebral cortex neuron; assay: Neuroprotective activity against glutamate-induced neuronal cell death in Sprague-Dawley rat primary cortical neuron at 1 uM pretreated for 24 hrs prior to glutamate challenge measured after 24 hrs by MTT assay; assay type: functional, cell-based
[18] = tested on: Cerebral cortex neuron; assay: Neuroprotective activity against glutamate-induced neuronal cell death in Sprague-Dawley rat primary cortical neuron at 2.5 uM pretreated for 24 hrs prior to glutamate challenge measured after 24 hrs by MTT assay; assay type: functional, cell-based

Prostaglandin G/H synthase 1, sequence (P23219 whole entry): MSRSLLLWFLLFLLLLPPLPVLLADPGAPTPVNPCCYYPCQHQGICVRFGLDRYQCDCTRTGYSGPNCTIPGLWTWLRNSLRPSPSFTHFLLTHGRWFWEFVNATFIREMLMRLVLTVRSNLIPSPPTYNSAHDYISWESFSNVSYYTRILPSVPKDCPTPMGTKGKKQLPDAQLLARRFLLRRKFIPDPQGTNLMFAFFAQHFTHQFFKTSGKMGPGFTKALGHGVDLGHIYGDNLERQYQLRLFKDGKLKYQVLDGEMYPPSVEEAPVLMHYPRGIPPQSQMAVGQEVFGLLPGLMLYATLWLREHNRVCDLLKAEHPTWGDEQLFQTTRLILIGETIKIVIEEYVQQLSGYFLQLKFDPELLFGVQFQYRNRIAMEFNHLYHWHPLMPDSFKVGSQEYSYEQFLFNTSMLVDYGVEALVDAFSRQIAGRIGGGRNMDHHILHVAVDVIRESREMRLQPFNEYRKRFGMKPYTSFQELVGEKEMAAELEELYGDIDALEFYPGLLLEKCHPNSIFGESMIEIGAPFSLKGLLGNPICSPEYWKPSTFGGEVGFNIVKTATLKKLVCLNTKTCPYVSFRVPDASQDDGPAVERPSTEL

| IC50 [3] [µM] | IC50 [4] [µM] | Activity [5] | Activity [6] | K [8] | Activity [9] | Activity [11] | IC50 [13] [µM] | SMILES | Activity [7] | Activity [10] | Activity [14] | further results |
| --- | --- | --- | --- | --- | --- | --- | --- | --- | --- | --- | --- | --- |
| – | – | – | – | – | – | – | – | CC(C)=CCC/C(C)=C/CC/C(C)=C/CC[C@]1(C)CCc2c(C)c(O)c(C)c(C)c2O1 | – | – | – | Activity [1]: Active; Activity [2]: Active |
| 13 | 9.4 | 0.58 | 0.69 | 2 ×10⁴ /M/s | 1.1 | Dose-dependent effect | 0.53 | CCc1ccc(-c2ccc(O)c(OC)c2)o1 | Active | Active | Active | Activity [12]: Active; Activity [15]: Active |
| 129 | 125 | – | – | – | – | – | – | CCCCC[C@H](O)CC(=O)CCc1ccc(O)c(OC)c1 [GINGEROL] | – | – | – | – |
| – | – | – | – | – | – | – | 7.4 | CCCCC/C=C/C(=O)CCc1ccc(O)c(OC)c1 [SHOGAOL] | – | – | – | – |
| 62 | 8.4 | 0.62 | 1 | 3 ×10⁴ /M/s | 1.3 | Dose-dependent effect | 2.6 | CCCCCCc1ccc(-c2ccc(O)c(OC)c2)o1 | Active | Active | Active | Activity [16]: Active; Activity [17]: Active |
| – | – | – | – | 1 ×10⁶ /M/s | – | – | – | Cc1c(C)c2c(c(C)c1O)CC[C@@](C)(CCC[C@H](C)CCC[C@H](C)CCCC(C)C)O2 [ALPHA-TOCOPHEROL] | – | – | – | Activity [18]: Active |
